Experiments:
[1] = test system: RNA editing in APOBEC3D (Sites 1 & 2); assay: Direct sequencing of CSC-specific RNA editing biomarkers in APOBEC3D after 8-azaadenosine treatment; assay type: cell-based, human
Description: As proof-of-concept that small molecule inhibitors could block RNA editing activity, CD34^+ cells from a CML blast crisis patient were treated with vehicle or 1 μM 8-azaadenosine (Veliz et al., JACS 2003) for 24 hours and co-cultured on humanized bone marrow stromal cells (SL/M2) for 5 days. […] Thus, RESSq-PCR and RNA editing inhibitors is an allele-specific diagnostic assay that can be used for detection of primate-specific RNA editing events in cancer stem cells.
For PCR and targeted Sanger sequencing analysis, 1-2 μL of first-strand cDNA templates were prepared for PCR in 25-50 μL reaction volumes using the high-fidelity KOD Hot Start DNA Polymerase kit according to the manufacturer's instructions (EMD Millipore, Temecula, Calif.). “Outer” primers (Additional file 2: Table S2) used for sequencing produce predicted amplicons of approximately 150-250 nucleotides in length, and flank each editing site with approximately 50-100 bp on either side of the editing site to facilitate successful sequencing analysis. […] Sequence chromatograms were analyzed using 4Peaks (by A. Griekspoor and Tom Groothuis) and peak heights calculated using ImageJ (NIH). For RNA editing analysis of sequencing chromatograms, ratios of edited/WT peaks were calculated using the raw peak amplitude of each sequence trace.

ADAR1 = assay: qRT-PCR of total ADAR1 levels after 8-azaadenosine treatment; assay type: cell-based, human; conditions: cord blood, ABM, and blast crisis cells; FIG. 21A
Description: (A) 8-azaadenosine treatment results in reduced total ADAR1 levels by qRT-PCR, and (B) decreased RNA editing in APOBEC3D (Sites 1 & 2) by direct sequencing.
Cell lines, lentivirus-transduced primary hematopoietic cells, or FACS-purified primary cells were harvested in lysis buffer (Qiagen). RNA was purified using RNeasy extraction kits with a DNase (Qiagen) incubation step to digest any trace genomic DNA present. For RNA extraction from cell line lysates, 1-2×10^6 cells were extracted using RNeasy mini columns, and for primary cells, 5-10×10^4 cells were lysed and extracted using RNeasy micro columns. Genomic DNA was purified from equal numbers of cells lysed separately using the QIAamp DNA Blood Mini Kit (Qiagen) including an RNase A incubation step to digest any RNA present (Qiagen). RNA was stored at −80° C. and gDNA stored at −20° C. Immediately prior to reverse transcription of RNA samples, nucleic acid concentrations were quantified on a NanoDrop 2000 spectrophotometer (Thermo Scientific), and purity was considered acceptable if A260/A280 values were >1.8. […]

## Nc1ncnc2c1nnn2[C@@H]1O[C@H](CO)[C@@H](O)[C@H]1O [8-azaadenosine]
[1]; CD34+ cells from a CML blast crisis patient, 1 μM for 24 hours vs vehicle, co-cultured on SL/M2 stromal cells for 5 days
  edit/wild-type sequence ratios of two CSC-specific RNA editing biomarkers in APOBEC3D: reduction
[1]; cord blood, ABM, and blast crisis cells, FIG. 21B
  RNA editing in APOBEC3D (Sites 1 & 2) by direct sequencing: decreased
ADAR1
  total ADAR1 levels by qRT-PCR: reduced
